Experimental data: US20110028400A1, “SULFATED UNSATURATED DISACCHARIDIC CHONDROITIN SULFATE IN CONNECTIVE TISSUE PROTECTION AND REPAIR” (NESTEC S.A., priority 2008, published 2011)
Counter-ions that a name gives are not always drawn.

Assays:
knee OA = conditions: cited from earlier work
knee synovial fluids = conditions: 10 days of 800 mg once a day; cited from earlier work
[1] = system: explants of articular cartilage; experiment: IL1β-induced GAG (35S) release from cultured bovine articular cartilage explants; assay type: cell-based; conditions: for slowing down cytokine-induced cartilage destruction in vitro: comparison among chondroitin disaccharides and higher molecular weight forms
Source text: It was investigated here whether normal commercially available chondroitin sulphate and different low molecular weight forms of chondroitin sulphate including disaccharides could inhibit the degradation of aggrecan in cultured explants of articular cartilage. Explants from healthy bovine articular cartilage were put in culture and loaded with S^35. S^35 is incorporated in the glycosaminoglycan chains of the aggrecan molecules of the cartilage and its release in the media is considered as a surrogate marker of glycosaminoglycan release and aggrecan catabolism. However, explants from healthy bovine articular cartilage naturally display a very low catabolic activity which is not ideal to test the anti-catabolic activity of potential bioactives. To improve the sensitivity of the assay, the explants were cultured in presence of IL1β, a pro-inflammatory cytokine, known to act as a potent inducer of MMP and aggrecanase activities. The different low molecular weight forms of chondroitin sulphate were added to the culture media together with IL1β to see whether they can decrease the IL1β-induced aggrecan catabolism. In addition, the effects of the low molecular weight forms of chondroitin sulphate on IL1β-induced NO production were also investigated. Nitric oxide is a reactive oxygen species known to participate in the progression of osteoarthritis.
(§1) The articular cartilage explants were dissected out of the metacarpophalangeal joint of old cows (8-10 years). The skin was removed from the feet. The articulation was opened transversally. Intraarticular ligaments were transected. […] Under the hood, similar quantities of cartilage were distributed between the wells of a 24-wells plate containing 500 μl of medium (DMEM+20% FBS, 1% penicillin/streptomycin, 0.1% gentamycin) per well. […]
The following protocol is based on Campbell et al., Arch Biochem Biophys 234(1): 275-289 and Hascall V C et al., Arch Biochem Biophys 224(1): 206-223. […] After 72 hours, several washes were performed to eliminate the non-incorporated radioactivity. The explants were then treated for 72 hours, after which the supernatants were collected and the amount of radioactivity released in the medium was measured with a beta counter, as a marker of GAG catabolism. The radioactivity present in the explants was also measured and used to normalize the amount of radioactivity released into the media. The radioactivity was expressed in DPM ([…] per minute) and the GAG release is assessed by the following formula:
GAG release=radioactivity in the supernatants/(radioactivity in the supernatants+radioactivity in the explants)

[2] = system: cartilage damages and proteoglycan loss; conditions: 20 mg/kg body weight/day, 11 days before to 21 days after chymopapain injection; cited from earlier work
[3] = rat intestinal loop model, bioavailability; assay type: in vivo
[4] = system: explants of articular cartilage; experiment: IL1β-induced NO production in cultured bovine articular cartilage explants; assay type: cell-based; conditions: 500 μg/ml, with 50 ng/ml IL1β, 72 hours, 4 experiments
Source text: It was investigated here whether normal commercially available chondroitin sulphate and different low molecular weight forms of chondroitin sulphate including disaccharides could inhibit the degradation of aggrecan in cultured explants of articular cartilage. Explants from healthy bovine articular cartilage were put in culture and loaded with S^35. S^35 is incorporated in the glycosaminoglycan chains of the aggrecan molecules of the cartilage and its release in the media is considered as a surrogate marker of glycosaminoglycan release and aggrecan catabolism. However, explants from healthy bovine articular cartilage naturally display a very low catabolic activity which is not ideal to test the anti-catabolic activity of potential bioactives. […]
as §1, with “years).” for “years). The skin was removed from the feet. The articulation was opened transversally. Intraarticular ligaments were transected.”
For NO measurements a protocol based on Gilliam et al., Anal Biochem 212(2): 359-365 was used. […] After ten minutes, absorbance was measured at 538 nm. To quantify the amount of NO in the supernatants, a standard curve was prepared using sodium nitrite (0-60 μM).

[5] = system: proteoglycan depletion in cartilage; conditions: 100 and 300 mg/kg body weight/day, starting 2 weeks before bradikinin injections; cited from earlier work

## Chondroitin sulfate [CS]
Knee OA; 400 mg of CS 3 times a day, double-blind RCT
  improvement of the Lesquesne index versus diclofenac: slower than 50 mg of diclofenac
Knee OA; 800 mg CS, one year double-blind placebo-controlled RCT
  mean and minimum joint space width and joint space surface area on X-rays: decreased significantly in the placebo group but not in the 800 mg CS group
Knee OA; 800 mg once a day, 2-year double-blind RCT, placebo mean joint space loss 0.14 mm
  joint space narrowing: prevented joint space narrowing
Knee OA; 1000 mg per day, one trial
  function versus placebo: did not improve function better than placebo
Knee OA; 3 meta-analyses
  osteoarthritic symptoms, meta-analyses: superior to placebo
Knee OA; 6 of 7 double-blind placebo-controlled RCTs, 3 to 24 months, knee OA
  spontaneous pain and mobility versus placebo: more efficient than placebo
Knee OA; 800 and 1200 mg once a day
  pain and mobility, dose comparison: more effective on pain and mobility than placebo or 200 mg
Knee OA; both superior to placebo
  mobility, 1200 mg once a day versus 400 mg three times a day: No statistical significant difference
Knee OA; human, in vivo
  time before patients detect a significant difference in pain and mobility: at least 2 weeks
  time required to reach full symptom relief: up to 2 months
Knee OA; two 3 month-long periods in a year, 800 mg once a day
  mobility after intermittent treatment: lasting effects by improving mobility compared to placebo
Knee OA; versus diclofenac
  persistence of effects after termination of treatment: persisted longer than diclofenac effects
Knee synovial fluids
  activities of collagenase, phospholipase A2 and N-acetylglucosaminidase in knee synovial fluids: decreasing
  viscosity and hyaluronate concentration in knee synovial fluids: significantly increased
[1]
  slowing down cytokine-induced cartilage destruction in vitro: did not have any significant effect
[2]
  cartilage damages and proteoglycan loss: decreased cartilage damages and proteoglycan loss

## CC(=O)N[C@H]1C(O)O[C@H](CO)[C@H](OS(=O)(=O)O)[C@@H]1O[C@@H]1OC(C(=O)O)=C[C@H](O)[C@H]1O (stereo partly shown) [Δdi4S, 4-sulfated unsaturated disaccharidic chondroitin sulfate]
[1]; 500 μg/ml, with 50 ng/ml IL1β, 72 hours, 4 independent experiments
  amount of GAG released in the supernatants compared to IL1β alone: significantly (p<0.05) decreased
[1]
  slowing down cytokine-induced cartilage destruction in vitro: by far the most effective compound
[3]
  bioavailability: more bioavailable than regular high molecular weight chondroitin sulfate
[4]
  amount of NO in the supernatants compared to IL1β alone: significantly (p<0.05) decreased

## chondroitin-6 sulfate
[5]
  proteoglycan depletion in cartilage: reduced or prevented

## CC(=O)N[C@H]1C(O)O[C@H](CO)[C@H](OS(=O)(=O)O)[C@@H]1O (stereo partly shown) [GalNac 4S, 4 sulfated N-acetylgalactosamine]
[1]; dose range 500-50-5 μg/ml, with 50 ng/ml IL1β, 72 hours, FIG. 2
  IL1β-induced GAG release (percentage of radioactivity release): no effect
